The source of these data is patent US7879566B2, “Methods for the identification of modulators of OSGPR114 or OSGPR78 activity, and their use in the treatment of disease” (OSI Pharmaceuticals, Inc., priority 2003, dated 2011).

For one experiment, the target named is T1, OSGPR78 (Homo sapiens, UniProt P43657, I33V).
T1 construct: expressed in transfected cells; host or cells: engineered yeast (GPA1 replaced by G-alpha chimeras, STE3 deleted; Fus1p-LacZ reporters)
T1 sequence (P43657 1-344 I33V): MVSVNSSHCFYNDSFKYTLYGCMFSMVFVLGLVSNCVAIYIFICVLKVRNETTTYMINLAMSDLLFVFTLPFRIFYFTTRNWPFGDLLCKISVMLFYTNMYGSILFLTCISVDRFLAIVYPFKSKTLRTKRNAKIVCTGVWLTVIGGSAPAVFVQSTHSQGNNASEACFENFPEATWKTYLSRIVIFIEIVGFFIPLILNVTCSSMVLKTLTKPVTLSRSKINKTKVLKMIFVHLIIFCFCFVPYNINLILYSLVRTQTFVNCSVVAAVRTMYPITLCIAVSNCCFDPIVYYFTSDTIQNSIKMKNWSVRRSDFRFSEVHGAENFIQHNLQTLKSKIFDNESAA
The experiment can be described thus: Yeast Fus1p-LacZ β-galactosidase reporter assay, OSGPR78-transformed yeast. Particulars: Galpha i and Galpha 12/13 family chimeras (13393, 15074, 13395). Format: cell-based. The source says: The yeast cell-based reporter assays have previously been described in the literature (e.g. see Miret J. J., et. al. (2002) J. Biol. Chem. 277:6881-6887; Campbell R. M., et. al. (1999) Bioorg Med. Chem. Lett. 9:2413-2418; King K., et. al. (1990) Science. 250:121-123); WO 99/14344; WO 00/12704; and U.S. Pat. No. 6,100,042). Briefly, yeast cells have been engineered such that the endogenous yeast G-alpha (GPA1) has been deleted and replaced with G-protein chimeras constructed using multiple techniques. Additionally the endogenous yeast alpha-cell GPCR, STE3 has been deleted to allow for a […] expression of a mammalian GPCR of choice. In the yeast, elements of the pheromone signaling transduction pathway, which are conserved in eukaryotic cells (for example, the mitogen-activated protein kinase pathway), drive the expression of Fus1. By placing β-galactosidase (LacZ) under the control of the Fus1 promoter (Fus1p), a system has been developed whereby receptor activation leads to an enzymatic read-out. Different yeast strains (e.g. FIG. 6) denote the presence of different G-alpha chimeras (see “yeast reporter assays” in Results section below for definitions).
Yeast cells are transformed by an adaptation of the Lithium acetate method described by Agatep et.al. (Agatep, R., et. al. (1998) Transformation of Saccharomyces cerevisiae by the lithium acetate/single-stranded carrier DNA/polyethylene glycol (LiAc/ss-DNA/PEG) protocol. Technical Tips Online, Trends Journals, Elsevier). Briefly, yeast cells are grown overnight on yeast tryptone plates (YT). Carrier single-stranded DNA (10 μg), 2 μg of each of two Fus1p-LacZ reporter plasmids (one with URA3 selection marker and one with TRP1), 2 μg of OSGPR114 or OSGPR78 in yeast expression vector (2p origin of replication) and a lithium acetate/polyethylene glycol/TE buffer is pipetted into an Epindorf tube. The yeast expression plasmid containing the receptor/no receptor control has a LEU2 marker. Yeast cells are inoculated into this mixture and the reaction proceeds at 30° C. for 60 minutes. The yeast cells are then heat-shocked at 42° C. for 15 minutes. The cells are then washed and spread on selection plates. The selection plates are synthetic defined yeast media minus LEU, URA and TRP (SD-LUT). After incubating at 30° C. for 2-3 days, colonies that grow on the selection plates are then tested in the LacZ assay.
In order to perform fluorometric enzyme assays for β-galactosidase, yeast cells were grown overnight in liquid SD-LUT media to an unsaturated concentration (i.e. the cells are still dividing and have not yet reached stationary phase). They are diluted in fresh media to an optimal assay concentration and 90 μL of yeast cells were added to 96-well black polystyrene plates (Costar). Compounds, dissolved in ethanol and diluted in a 1% BSA solution to 10× concentration, were added to the plates and the yeast are placed at 30° C. for 4 h. After 4 h, the substrate for the β-galactosidase is added to each well: The substrate may yield a fluorescent or calorimetric read-out upon the activity of the β-galactosidase. In these experiments, Fluorescein di(β-D-galactopyranoside) was used (FDG), a substrate for the enzyme that releases fluorescein, allowing a fluorometric read-out. 20 μL of 500 μM FDG was used. After incubation of the cells with the substrate for 30-60 mins, 20 μL of 1 M sodium carbonate is added to terminate the reaction and enhance the fluorescent signal. The plates were then read in a fluorometer at 485/535 nm. As an alternate read-out system, the yeast are also engineered with a Fus1p-HIS gene which means that activation of the receptor can also be measured through the growth of the yeast in a […] media.
For orientation: Reporter assays use an easily measured gene product as a stand-in for the process of interest.

For the next experiment, the system named is HCT-8 cells. The experiment can be described thus: LPA effect on cell proliferation (Cell TiterGlo). Format: cell-based, human. As for the experimental part:
The effect of LPA on cell proliferation (Cell TiterGlo assay, Promega) and induction of apoptosis (Apo-One Caspase 3/7 assay, Promega) was measured in the presence and absence of serum. Cell-titer Glo is an assay that quantitates ATP as a measurement of the number of viable cells in a culture. The assay utilizes a luciferase-based luminescent signal. The Apo-One assay utilizes a profluorescent caspase 3/7 consensus substrate to measure the activation of caspase in the sample. The experiments were conducted in serum-free media as it is known that serum contains high concentrations of LPA (of the order of 10-30 uM). Briefly, cells were plated in 96-well plates at a density of 20,000 cells/well. After 24 h the serum-containing media was removed from the cells and replaced with either serum-containing or serum-free media. After 24 h LPA, at concentrations from 1-100 μM was added to the cells. 24 h later the induction of apoptosis and the level of cellular proliferation was measured using the Cell titer-glo or Caspase 3/7 Apo-One assay kits commercially available from Promega.
A general note: ATP-based viability assays read luminescence as a measure of living cells.

In a further experiment the test system is ERK in ASPC-1 cells. The experiment can be described thus: ERK phosphorylation by LPA. Format: cell-based, human. The following applies: 10 μM LPA, 3 mins. The procedure:
(§1) FIG. 23: Ability of LPA to phosphorylate ERK in cell lines known to express OSGPR114. 10 μM LPA and 1 μM EGF were used for this experiment, and the cells were stimulated with ligand for 3 mins prior to lysing.
(§2) One of the principal proliferative signaling pathways is the activation of ERK. […] However, the ability of LPA acting at OSGPR114 to effect ERK is unknown. HCT-8 cells, which express OSGPR114 at high levels, provide one of the best models available. […] This evidence supporting the hypothesis that LPA, likely acting at least in part at OSGPR114, induces ERK activation, a signaling pathway that is known to stimulate cellular proliferation.

In a further experiment the test system is ERK in HCT-8 cells. The experiment can be described thus: ERK phosphorylation by LPA. Particulars: 10 μM LPA, 3 mins. The class given is cell-based, human. As for the experimental part: as §1, §2

Take lysophosphatidic acid [LPA]: the “response in yeast G-alpha chimera strains” value at OSGPR78 is recorded as “optimal for LPA response”. Besides, the “cell growth / proliferation” value in the experiment on HCT-8 cells (presence of 10% FCS) is “no statistically significant effects”; in the experiment on HCT-8 cells (serum free conditions, LPA 1-100 μM, 24 h) it was “induced growth of the cells in a concentration dependent manner”. The ERK activation entry in the experiment with ERK in ASPC-1 cells and with ERK in HCT-8 cells was “stimulate ERK” in each case.
